Reference: EP0326329B1, “Quinazoline derivatives useful as insecticides” (Dow AgroSciences LLC, priority 1988, dated 1989)

Key:
Assay type in all cases: in vivo
[1] = tested on: melon aphids (Aphis gossypii Glover); assay: Mite/insect screen, sprayed squash cotyledons (MA); conditions: percent mortality; for mortality at 200 ppm / mortality at 400 ppm: Aphis gossypii, read-out: MA RESULTS %; for mortality at 400 ppm: spray rate 400 ppm
In short: (§1)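 Water-diluted formulations of each compound (acetone/alcohol 50:50 with 23 g/L and 13 g/L emulsifier blends) are sprayed over both leaf faces to runoff. After a standard exposure period, percent kill and phytotoxicity are recorded.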

[2] = tested on: Venturia inaequalis (apple scab); assay: Greenhouse Test 1, foliar spray fungicide screen (APPL SCAB), host apple seedling; conditions: disease control rating, 400 ppm (+++ at 100 ppm)
[3] = tested on: Pseudoperonospora cubensis (downy mildew); assay: Greenhouse Test 1, foliar spray fungicide screen (DOWN MDEW), host squash; conditions: disease control rating, 400 ppm (+++ at 100 ppm)
tarnished plant bug = assay: Mite and insect field trials; conditions: plant: alfalfa (Lucerne)
Procedure: (§2) 4-[2-[4-(t-butyl)phenyl]ethoxy]quinazoline and 4-[2-(1,1'-biphenyl)-4 biphenyl)-4-ylethoxy]quinazoline were evaluated against a variety of mite and insect species in field trials.

rosy apple aphid = assay: Mite and insect field trials; conditions: plant: apples
Procedure: as §2

Dawson-hop aphid = assay: Mite and insect field trials; conditions: plant: hops
Procedure: as §2

potato aphid = assay: Mite and insect field trials; conditions: plant: turnip
Procedure: as §2

glasshouse whitefly = assay: Mite and insect field trials; conditions: tested on tomato
Procedure: as §2

bean aphid = assay: Mite and insect field trials; conditions: plant: bean, faba broad
Procedure: as §2

potato leafhopper = assay: Mite and insect field trials; conditions: plant: alfalfa (Lucerne)
Procedure: as §2

greenhouse thrips = assay: Mite and insect field trials; conditions: plant: azaleas
Procedure: as §2

wheat aphid = assay: Mite and insect field trials; conditions: plant: wheat
Procedure: as §2

yellow hickory aphid = assay: Mite and insect field trials; conditions: plant: pecan nut
Procedure: as §2

cotton aphid = assay: Mite and insect field trials; conditions: plant: cotton
Procedure: as §2

apple rust mite = assay: Mite and insect field trials; conditions: plant: apples
Procedure: as §2

pea aphid = assay: Mite and insect field trials
Procedure: as §2

white apple leafhopper = assay: Mite and insect field trials; conditions: plant: apples
Procedure: as §2

green cloverworm = assay: Mite and insect field trials; conditions: plant: alfalfa (Lucerne)
Procedure: as §2

grape thrips = assay: Mite and insect field trials; conditions: plant: grape (European)
Procedure: as §2

green peach aphid = assay: Mite and insect field trials
Procedure: as §2

grape leafhopper = assay: Mite and insect field trials; conditions: plant: grape (European)
Procedure: as §2

thrips = assay: Mite and insect field trials; conditions: plant: privet
Procedure: as §2

European red mite = assay: Mite and insect field trials; conditions: plant: apples
Procedure: as §2

twospotted spider mite = assay: Mite and insect field trials
Procedure: as §2

cereal aphid = assay: Mite and insect field trials; conditions: plant: barley
Procedure: as §2

apple aphid = assay: Mite and insect field trials; conditions: plant: apples
Procedure: as §2

black citrus aphid = assay: Mite and insect field trials; conditions: plant: lemon
Procedure: as §2

[4] = tested on: Twospotted spider mites (Tetranychus urticae Koch); assay: Mite/insect screen, sprayed squash cotyledons (SM); conditions: percent mortality; for mortality at 200 ppm / mortality at 400 ppm: Tetranychus urticae, read-out: SM RESULTS %; for mortality at 400 ppm: spray rate 400 ppm
In short: as §1

[5] = tested on: Puccinia recondita tritici (leaf rust); assay: Greenhouse Test 1, foliar spray fungicide screen (LEAF RUST), host wheat; conditions: disease control rating, 400 ppm (+++ at 100 ppm)
[6] = tested on: Erysiphe graminis tritici (powdery mildew); assay: Greenhouse Test 1, foliar spray fungicide screen (POWD MDEW), host wheat; conditions: disease control rating, 400 ppm (+++ at 100 ppm)
[7] = tested on: Pyricularia oryzae (rice blast); conditions: disease control rating, foliar spray, host rice; 400 ppm (+++ at 100 ppm)
[8] = tested on: southern armyworm (Spodopetra eridania Cramer); assay: Mite/insect screen, sprayed squash leaves (SAW); conditions: Spodoptera eridania, percent mortality, read-out: SAW RESULTS %; for mortality at 200 ppm: spray rate 200 ppm; for mortality at 400 ppm: spray rate 400 ppm
In short: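 Percent mortality and phytotoxicity are the read-outs, assessed after standard exposure periods. Test solutions, made in 50:50 acetone/alcohol with two sulfonate/nonionic emulsifier blends and diluted in water, are sprayed to runoff on both leaf surfaces, which then dry for one hour.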

[9] = tested on: Botrytis cinerea (gray mold); assay: Greenhouse Test 1, foliar spray fungicide screen (GRAY MOLD), host grape berries; conditions: disease control rating, 400 ppm (+++ at 100 ppm)
[10] = tested on: Southern corn rootworm (Diabrotica undecimpuctata howardi Barber); assay: Mite/insect screen, soil treatment (CRW); conditions: percent mortality, soil treatment; for mortality at 12 ppm / mortality at 24 ppm: Diabrotica, read-out: CRW RESULTS %; for mortality at 24 ppm: CRW rate 24.00 ppm
In short: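 Compounds dissolved in acetone/alcohol (50:50) with Toximul R/S emulsifiers, diluted with water. Soil (15 g, with presoaked corn seed) treated with 1 mL test solution, dried 6–12 h, then five 2–3 instar larvae added; held at 23°C. Percent mortality and phytotoxicity scored after standard exposure periods.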

[11] = tested on: Cercospora beticola (leaf spot); assay: Greenhouse Test 1, foliar spray fungicide screen (LEAF SPOT), host sugar beet; conditions: disease control rating, 400 ppm (+++ at 100 ppm)
[12] = tested on: Septoria tritici (leaf blotch); assay: Greenhouse Test 1, foliar spray fungicide screen (LEAF BLOT), host wheat; conditions: disease control rating, 400 ppm (+++ at 100 ppm)
Phytophthora infestans = conditions: crop: potato
Plasmopara viticola = assay: Fungicide field tests; conditions: crop: grape
Excerpt: (§3) Selected compounds were field tested on various crops against a variety of pathogens. […]

Sphaerotheca fuliginea = assay: Fungicide field tests; conditions: crop: cucumber
Excerpt: as §3

Rhynchosporium secalis = assay: Fungicide field tests; conditions: crop: barley
Excerpt: as §3

Erysiphe graminis hordei = assay: Fungicide field tests; conditions: crop: barley
Excerpt: as §3

Uncinula necator = assay: Fungicide field tests; conditions: crop: grapes
Excerpt: as §3

Alternaria brassicae = assay: Fungicide field tests; conditions: crop: rape
Excerpt: as §3

Pyrenophora teres = assay: Fungicide field tests; conditions: crop: barley
Excerpt: as §3

[13] = tested on: Pseudocercosporella herpotrichoides; assay: Fungicide field tests; conditions: crop: wheat
Excerpt: as §3

[14] = tested on: Erysiphe graminis tritici; assay: Fungicide field tests; conditions: crop: wheat
Excerpt: as §3

Septoria nodorum = assay: Fungicide field tests; conditions: crop: wheat
Excerpt: as §3

Podosphaera leucotricha = assay: Fungicide field tests; conditions: crop: apple
Excerpt: as §3

c1ccc(-c2ccc(CCOc3ncnc4ccccc34)cc2)cc1 [Example 85, 4-[2-(1,1'-biphenyl)-4-ylethoxy]quinazoline]
mortality at 200 ppm ([1]; spray rate 200 ppm): 100%
mortality at 400 ppm [1]: 100%
APPL SCAB [2]: - (- = 0-19% control at 400 ppm)
DOWN MDEW [3]: +++ (+++ = 90-100% control at 100 ppm)
mite or insect species against which they showed activity in field trials (tarnished plant bug): tarnished plant bug
mite or insect species against which they showed activity in field trials (rosy apple aphid): rosy apple aphid
mite or insect species against which they showed activity in field trials (Dawson-hop aphid): Dawson-hop aphid
mite or insect species against which they showed activity in field trials (potato aphid): potato aphid
activity against glasshouse whitefly in field trials (glasshouse whitefly): showing activity
mite or insect species against which they showed activity in field trials (bean aphid): bean aphid
mite or insect species against which they showed activity in field trials (potato leafhopper): potato leafhopper
mite or insect species against which they showed activity in field trials (greenhouse thrips): greenhouse thrips
mite or insect species against which they showed activity in field trials (wheat aphid): wheat aphid
mite or insect species against which they showed activity in field trials (yellow hickory aphid): yellow hickory aphid
mite or insect species against which they showed activity in field trials (cotton aphid): cotton aphid
mite or insect species against which they showed activity in field trials (apple rust mite): apple rust mite
mite or insect species against which they showed activity in field trials (pea aphid; plant: alfalfa (Lucerne)): pea aphid
mite or insect species against which they showed activity in field trials (pea aphid; plant: pea, garden (English)): pea aphid
mite or insect species against which they showed activity in field trials (white apple leafhopper): white apple leafhopper
mite or insect species against which they showed activity in field trials (green cloverworm): green cloverworm
mite or insect species against which they showed activity in field trials (grape thrips): grape thrips
mite or insect species against which they showed activity in field trials (green peach aphid; plant: apples): green peach aphid
mite or insect species against which they showed activity in field trials (green peach aphid; plant: sugar beet): green peach aphid
mite or insect species against which they showed activity in field trials (grape leafhopper): grape leafhopper
mite or insect species against which they showed activity in field trials (thrips): thrips
mite or insect species against which they showed activity in field trials (European red mite): European red mite
mite or insect species against which they showed activity in field trials (twospotted spider mite; plant: azaleas): twospotted spider mite
mite or insect species against which they showed activity in field trials (twospotted spider mite; plant: broccoli): twospotted spider mite
mite or insect species against which they showed activity in field trials (twospotted spider mite; plant: plum (Japanese)): twospotted spider mite
mite or insect species against which they showed activity in field trials (cereal aphid): cereal aphid
mite or insect species against which they showed activity in field trials (apple aphid): apple aphid
mite or insect species against which they showed activity in field trials (black citrus aphid): black citrus aphid
mortality at 200 ppm ([4]; spray rate 200 ppm): 100%
mortality at 400 ppm [4]: 100%
LEAF RUST [5]: +++ (+++ = 90-100% control at 100 ppm)
POWD MDEW [6]: ++ (++ = 90-100% control at 400 ppm)
RICE BLAST [7]: + (+ = 20-89% control at 400 ppm)
mortality at 200 ppm [8]: 10%
mortality at 400 ppm [8]: 80%
GRAY MOLD [9]: - (- = 0-19% control at 400 ppm)
mortality at 12 ppm ([10]; CRW rate 12.00 ppm): 0%
mortality at 24 ppm [10]: 0%
LEAF SPOT [11]: - (- = 0-19% control at 400 ppm)
LEAF BLOT [12]: +++ (+++ = 90-100% control at 100 ppm)

Clc1ccc(CCOc2ncnc3ccccc23)cc1 [Example 5, 4-[2-(4-chlorophenyl)ethoxy]quinazoline]
mortality at 200 ppm ([1]; spray rate 200 ppm): 100%
mortality at 400 ppm [1]: 100%
APPL SCAB [2]: +++ (+++ = 90-100% control at 100 ppm)
DOWN MDEW [3]: + (+ = 20-89% control at 400 ppm)
pathogen against which compound demonstrated activity in field tests (Phytophthora infestans): Phytophthora infestans
mortality at 200 ppm ([4]; spray rate 200 ppm): 100%
mortality at 400 ppm [4]: 50%
LEAF RUST [5]: +++ (+++ = 90-100% control at 100 ppm)
POWD MDEW [6]: +++ (+++ = 90-100% control at 100 ppm)
RICE BLAST [7]: +++ (+++ = 90-100% control at 100 ppm)
mortality at 200 ppm [8]: 20%
mortality at 400 ppm [8]: 0%
GRAY MOLD [9]: - (- = 0-19% control at 400 ppm)
mortality at 12 ppm ([10]; CRW rate 12.00 ppm): 0%
mortality at 24 ppm [10]: 0%
LEAF SPOT [11]: +++ (+++ = 90-100% control at 100 ppm)
pathogen against which compound demonstrated activity in field tests (Plasmopara viticola): Plasmopara viticola
LEAF BLOT [12]: ++ (++ = 90-100% control at 400 ppm)

c1ccc2cc(CCNc3ncnc4ccccc34)ccc2c1 [Example 53, N-[2-(2-naphthyl)ethyl]-4-quinazolinamine]
mortality at 200 ppm ([1]; spray rate 200 ppm): 0%
MA RESULTS % ([1]; spray rate 200 ppm): 0%
APPL SCAB [2]: + (+ = 20-89% control at 400 ppm)
DOWN MDEW [3]: +++ (+++ = 90-100% control at 100 ppm)
mortality at 200 ppm ([4]; spray rate 200 ppm): 0%
SM RESULTS % ([4]; spray rate 200 ppm): 0%
LEAF RUST [5]: +++ (+++ = 90-100% control at 100 ppm)
POWD MDEW [6]: +++ (+++ = 90-100% control at 100 ppm)
RICE BLAST [7]: +++ (+++ = 90-100% control at 100 ppm)
GRAY MOLD [9]: - (- = 0-19% control at 400 ppm)
mortality at 12 ppm ([10]; CRW rate 12.00 ppm): 0%
CRW RESULTS % ([10]; CRW rate 12.00 ppm): 0%
LEAF SPOT [11]: - (- = 0-19% control at 400 ppm)
pathogen against which compound demonstrated activity in field tests (Sphaerotheca fuliginea): Sphaerotheca fuliginea
pathogen against which compound demonstrated activity in field tests (Rhynchosporium secalis): Rhynchosporium secalis
pathogen against which compound demonstrated activity in field tests (Erysiphe graminis hordei): Erysiphe graminis hordei
pathogen against which compound demonstrated activity in field tests (Uncinula necator): Uncinula necator
pathogen against which compound demonstrated activity in field tests (Alternaria brassicae): Alternaria brassicae
pathogen against which compound demonstrated activity in field tests (Pyrenophora teres): Pyrenophora teres
pathogen against which compound demonstrated activity in field tests [13]: Pseudocercosporella herpotrichoides
pathogen against which compound demonstrated activity in field tests [14]: Erysiphe graminis tritici
pathogen against which compound demonstrated activity in field tests (Plasmopara viticola): Plasmopara viticola
pathogen against which compound demonstrated activity in field tests (Septoria nodorum): Septoria nodorum
pathogen against which compound demonstrated activity in field tests (Podosphaera leucotricha): Podosphaera leucotricha
LEAF BLOT [12]: +++ (+++ = 90-100% control at 100 ppm)
